Calls of active or inactive are those of the source. No cut-off for these calls is given here.
Tests used:
HL-60 [1] = experiment: Cytotoxicity against human HL60 cells by MTT assay; type: functional, cell-based
HCT-116 [2] = experiment: Cytotoxicity against human HCT116 cells by MTT assay; type: functional, cell-based
HL-60 [3] = experiment: Induction of apoptosis in human HL60 cells assessed as chromatin condensation at IC50 concentration after 24 to 48 hrs using Hoechst 33342 staining by fluorescence microscope; type: functional, cell-based
HL-60 [4] = experiment: Induction of apoptosis in human HL60 cells assessed as membrane blebbing at IC50 concentration after 24 to 48 hrs using Hoechst 33342 staining by fluorescence microscope; type: functional, cell-based
HL-60 [5] = experiment: Induction of apoptosis in human HL60 cells assessed as cell shrinkage at IC50 concentration after 24 to 48 hrs using Hoechst 33342 staining by fluorescence microscope; type: functional, cell-based
HCT-116 [6] = experiment: Induction of apoptosis in human HCT116 cells assessed as chromatin condensation at IC50 concentration after 24 to 48 hrs using Hoechst 33342 staining by fluorescence microscope; type: functional, cell-based
HCT-116 [7] = experiment: Induction of apoptosis in human HCT116 cells assessed as membrane blebbing at IC50 concentration after 24 to 48 hrs using Hoechst 33342 staining by fluorescence microscope; type: functional, cell-based
HCT-116 [8] = experiment: Induction of apoptosis in human HCT116 cells assessed as cell shrinkage at IC50 concentration after 24 to 48 hrs using Hoechst 33342 staining by fluorescence microscope; type: functional, cell-based
HCT-116 [9] = experiment: Induction of apoptosis in human HCT116 cells assessed as increase in induction of PARP cleavage by Western blotting; type: functional, cell-based
HCT-116 [10] = experiment: Induction of apoptosis in human HCT116 cells assessed as increase in expression of DR5 by Western blotting; type: functional, cell-based
HCT-116 [11] = experiment: Induction of apoptosis in human HCT116 cells assessed as decrease in expression of BCL-2 by Western blotting; type: functional, cell-based
HCT-116 [12] = experiment: Induction of apoptosis in human HCT116 cells assessed as increase in expression of Bax by Western blotting; type: functional, cell-based
HCT-116 [13] = experiment: Induction of apoptosis in human HCT116 cells assessed as increase in caspase-9 activation by Western blotting; type: functional, cell-based
[14] = biological target: Mitogen-activated protein kinase; ERK1/ERK2 (Homo sapiens) (UniProt P27361+P28482); experiment: Activation of ERK1/2 in human HCT116 cells assessed as phosphorylated ERK1/2 level by Western blotting; type: cell-based; conditions: HCT-116
Mitogen-activated protein kinase; ERK1/ERK2 (Homo sapiens), sequence (P27361 whole entry, looked up): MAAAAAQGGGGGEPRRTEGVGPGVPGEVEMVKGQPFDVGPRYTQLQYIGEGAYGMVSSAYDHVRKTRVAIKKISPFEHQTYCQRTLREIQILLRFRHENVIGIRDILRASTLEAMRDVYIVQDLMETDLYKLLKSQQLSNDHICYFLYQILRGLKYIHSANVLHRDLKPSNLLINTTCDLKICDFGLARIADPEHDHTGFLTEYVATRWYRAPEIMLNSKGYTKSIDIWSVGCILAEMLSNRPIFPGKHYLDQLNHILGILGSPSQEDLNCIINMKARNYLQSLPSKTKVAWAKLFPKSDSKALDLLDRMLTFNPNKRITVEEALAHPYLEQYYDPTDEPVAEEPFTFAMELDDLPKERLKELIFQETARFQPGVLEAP
Mitogen-activated protein kinase; ERK1/ERK2 (Homo sapiens), sequence (P28482 whole entry, looked up): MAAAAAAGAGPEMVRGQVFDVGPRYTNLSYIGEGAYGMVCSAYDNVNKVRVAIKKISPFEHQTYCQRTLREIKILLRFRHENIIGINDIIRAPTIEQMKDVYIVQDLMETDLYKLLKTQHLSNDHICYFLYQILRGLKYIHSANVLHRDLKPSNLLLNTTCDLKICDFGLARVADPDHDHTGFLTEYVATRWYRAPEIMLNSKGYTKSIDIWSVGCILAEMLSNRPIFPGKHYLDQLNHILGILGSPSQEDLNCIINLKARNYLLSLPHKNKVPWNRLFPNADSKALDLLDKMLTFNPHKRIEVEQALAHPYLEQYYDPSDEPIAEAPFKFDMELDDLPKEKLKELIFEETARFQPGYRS

Row | Structure (SMILES) | IC50 (HL-60 [1]) [µM] | IC50 (HCT-116 [2]) [µM] | also measured
1 | CC1(C)CC[C@]2(C(=O)O[C@@H]3O[C@H](CO)[C@@H](O)[C@H](O)[C@H]3O)CC[C@]3(C)C(=CC[C@@H]4[C@@]5(C)CC[C@H](O[C@@H]6O[C@H](C(=O)O)[C@@H](O)[C@H](O[C@@H]7O[C@H](CO)[C@@H](O)[C@H](O)[C@H]7O)[C@H]6O)C(C)(C)[C@@H]5CC[C@]43C)[C@@H]2C1 | 73 | > 100 | –
2 | COC(=O)[C@H]1O[C@@H](O[C@H]2CC[C@]3(C)[C@H]4CC=C5[C@@H]6CC(C)(C)CC[C@]6(C(=O)O[C@@H]6O[C@H](CO)[C@@H](O)[C@H](O)[C@H]6O)CC[C@@]5(C)[C@]4(C)CC[C@H]3C2(C)C)[C@H](O)[C@@H](O[C@@H]2O[C@H](CO)[C@@H](O)[C@H](O)[C@H]2O)[C@@H]1O | 83.9 | > 100 | –
3 | CC1(C)CC[C@]2(C(=O)O[C@@H]3O[C@H](CO)[C@@H](O)[C@H](O)[C@H]3O)CC[C@]3(C)C(=CC[C@@H]4[C@@]5(C)CC[C@H](O[C@@H]6O[C@H](CO)[C@@H](O)[C@H](O)[C@H]6O[C@H]6OC[C@@H](O)[C@H](O)[C@H]6O)C(C)(C)[C@@H]5CC[C@]43C)[C@@H]2C1 | > 100 | 75.9 | –
4 | COC(=O)[C@H]1O[C@@H](O[C@H]2CC[C@]3(C)[C@H]4CC=C5[C@@H]6CC(C)(C)CC[C@]6(C(=O)O[C@@H]6O[C@H](CO)[C@@H](O)[C@H](O)[C@H]6O)CC[C@@]5(C)[C@]4(C)CC[C@H]3C2(C)C)[C@H](O)[C@@H](O)[C@@H]1O[C@H]1O[C@@H](CO)[C@H](O)[C@H]1O [ARALOSIDE A METHYL ESTER] | 63.4 | > 100 | –
5 | CC1(C)CC[C@]2(C(=O)O[C@@H]3O[C@H](CO)[C@@H](O)[C@H](O)[C@H]3O)CC[C@]3(C)C(=CC[C@@H]4[C@@]5(C)CC[C@H](O[C@@H]6O[C@H](C(=O)O)[C@@H](O)[C@H](O)[C@H]6O)C(C)(C)[C@@H]5CC[C@]43C)[C@@H]2C1 [CHIKUSETSUSAPONIN IVA] | 76.2 | 78.1 | –
6 | O=C1c2c(O)ccc(O)c2C(=O)c2c(NCCNCCO)ccc(NCCNCCO)c21 [MITOXANTRONE] | 7.5 | 3.96 | –
7 | CC1(C)CC[C@]2(C(=O)O)CC[C@]3(C)C(=CC[C@@H]4[C@@]5(C)CC[C@H](O)C(C)(C)[C@@H]5CC[C@]43C)[C@@H]2C1 [OLEANOLIC_ACID] | 77.5 | 4.8 | –
8 | COC(=O)[C@H]1O[C@@H](O[C@H]2CC[C@]3(C)[C@H]4CC=C5[C@@H]6CC(C)(C)CC[C@]6(C(=O)O)CC[C@@]5(C)[C@]4(C)CC[C@H]3C2(C)C)[C@H](O[C@H]2OC[C@@H](O)[C@H](O)[C@H]2O)[C@@H](O)[C@@H]1O [PESUDOGINSENOSIDE RP1 METHYL ESTER] | 41.5 | 6.5 | Activity (HL-60 [3]): Active; Activity (HL-60 [4]): Active; Activity (HL-60 [5]): Active; Activity (HCT-116 [6]): Active; Activity (HCT-116 [7]): Active; Activity (HCT-116 [8]): Active; Activity (HCT-116 [9]): Active; Activity (HCT-116 [10]): Active; Activity (HCT-116 [11]): Active; Activity (HCT-116 [12]): Active; Activity (HCT-116 [13]): Active; Activity [14]: Active
9 | COC(=O)[C@H]1O[C@@H](O[C@H]2CC[C@]3(C)[C@H]4CC=C5[C@@H]6CC(C)(C)CC[C@]6(C(=O)O[C@@H]6O[C@H](CO)[C@@H](O)[C@H](O)[C@H]6O)CC[C@@]5(C)[C@]4(C)CC[C@H]3C2(C)C)[C@H](O[C@H]2OC[C@@H](O)[C@H](O)[C@H]2O)[C@@H](O)[C@@H]1O [PSEUDOGINSENOSIDE RT1 METHYL ESTER] | > 100 | > 100 | –
10 | CC1(C)CC[C@]2(C(=O)O[C@@H]3O[C@H](CO)[C@@H](O)[C@H](O)[C@H]3O)CC[C@]3(C)C(=CC[C@@H]4[C@@]5(C)CC[C@H](O[C@@H]6O[C@H](C(=O)O)[C@@H](O)[C@H](O)[C@H]6O[C@H]6OC[C@@H](O)[C@H](O)[C@H]6O)C(C)(C)[C@@H]5CC[C@]43C)[C@@H]2C1 [PSEUDOGINSENOSIDE RT1] | 91.2 | > 100 | –
11 | COC(=O)[C@H]1O[C@@H](O[C@H]2CC[C@]3(C)[C@H]4CC=C5[C@@H]6CC(C)(C)CC[C@]6(C(=O)O)CC[C@@]5(C)[C@]4(C)CC[C@H]3C2(C)C)[C@H](O)[C@@H](O[C@@H]2O[C@H](CO)[C@@H](O)[C@H](O)[C@H]2O)[C@@H]1O [SPINASAPONIN A METHYL ESTER] | 4.44 | 0.63 | Activity (HL-60 [3]): Active; Activity (HL-60 [4]): Active; Activity (HL-60 [5]): Active; Activity (HCT-116 [6]): Active; Activity (HCT-116 [7]): Active; Activity (HCT-116 [8]): Active; Activity (HCT-116 [9]): Active; Activity (HCT-116 [10]): Active; Activity (HCT-116 [11]): Active; Activity (HCT-116 [12]): Active; Activity (HCT-116 [13]): Active; Activity [14]: Active
12 | COC(=O)[C@H]1O[C@@H](O[C@H]2CC[C@]3(C)[C@H]4CC=C5[C@@H]6CC(C)(C)CC[C@]6(C(=O)O[C@@H]6O[C@H](CO)[C@@H](O)[C@H](O)[C@H]6O)CC[C@@]5(C)[C@]4(C)CC[C@H]3C2(C)C)[C@H](O)[C@@H](O[C@@H]2O[C@H](CO)[C@@H](O)[C@H](O)[C@H]2O)[C@@H]1O[C@H]1O[C@@H](CO)[C@H](O)[C@H]1O [STIPULEANOSIDE R2 METHYL ESTER] | 67.1 | > 100 | –
13 | CC1(C)CC[C@]2(C(=O)O[C@@H]3O[C@H](CO)[C@@H](O)[C@H](O)[C@H]3O)CC[C@]3(C)C(=CC[C@@H]4[C@@]5(C)CC[C@H](O[C@@H]6O[C@H](C(=O)O)[C@@H](O[C@H]7O[C@@H](CO)[C@H](O)[C@H]7O)[C@H](O[C@@H]7O[C@H](CO)[C@@H](O)[C@H](O)[C@H]7O)[C@H]6O)C(C)(C)[C@@H]5CC[C@]43C)[C@@H]2C1 [STIPULEANOSIDE R2] | > 100 | > 100 | –

From ChEMBL document CHEMBL1287676, “Oleanane-type triterpenoids from Panax stipuleanatus and their anticancer activities” (Bioorg Med Chem Lett, 2010)
